For orientation: IC50 means the concentration that gives 50% inhibition.

Our source for the IC50 values is US20250179073A1, “TRICYCLIC HETEROCYCLE COMPOUNDS AS IAP ANTAGONISTS” (Ascentage Pharma (Suzhou) Co., Ltd., priority 2022, published 2025).

The test system of one assay is EVSA-T cells. The assay is described as follows: Cell proliferation assay (CellTiter-Glo), EVSA-T. The format is cell-based. Particulars: Homo sapiens, EVSA-T, 72 h, 72 h treatment, Celltiter-Glo luminescence. In a few lines: (§1)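 Compounds tested over ten concentrations ([…]) for 72 h on EVSA-T cells in MEM/10% FBS and MDA-MB-231 cells in RPMI-1640/10% FBS, seeded at 10000/well. Luminescent CellTiter-Glo readout; IC50 fitted after normalisation to controls.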

The subject of a further assay is MDA-MB-231 cells. As to the kind of experiment: Cell proliferation assay (CellTiter-Glo), MDA-MB-231. The format is cell-based. To be noted: Homo sapiens, MDA-MB-231, 72 h, 72 h treatment, Celltiter-Glo luminescence. In a few lines:
as §1
On the technique in general: In ATP-based viability assays light output follows the ATP content of the culture.

As for `C[C@@H]1CN(CC(=O)N2CC(C)(C)c3c2cc(Cc2ccc(F)cc2F)c2nn(C(C)(C)CO)c(=O)n32)[C@@H](CN2CCOC[C@H]2C)CN1` [Compound 275, 4-(2,4-difluorobenzyl)-2-(1-hydroxy-2-methylpropan-2-yl)-8,8-dimethyl-6-(2-((2R,5R)-5-methyl-2-(((R)-3-methylmorpholino)methyl)piperazin-1-yl)acetyl)-2,6,7,8-tetrahydro-1H-pyrrolo[2,3-e][1,2,4]triazolo[4,3-a]pyridin-1-one], the IC50 in the assay on EVSA-T cells was found to be 3.1 nM; in the assay on MDA-MB-231 cells, 9 nM.
The corresponding values for `C[C@@H]1CN(CC(=O)N2CC(C)(C)c3c2cc(Cc2ccc(F)cc2)c2nn(CC(C)(C)O)c(=O)n32)[C@@H](CN2CCOCC23CC3)CN1` [Compound 278, 6-(2-((2R,5R)-2-((7-oxa-4-azaspiro[2.5]octan-4-yl)methyl)-5-methylpiperazin-1-yl)acetyl)-4-(4-fluorobenzyl)-2-(2-hydroxy-2-methylpropyl)-8,8-dimethyl-2,6,7,8-tetrahydro-1H-pyrrolo[2,3-e][1,2,4]triazolo[4,3-a]pyridin-1-one] are 9.7 nM and 39 nM.
The corresponding values for `C[C@@H]1CN(CC(=O)N2CC(C)(C)c3c2cc(Cc2ccc(F)cc2F)c2nn(C[C@H]4COCCO4)c(=O)n32)[C@@H](CN2CCOC[C@H]2C)CN1` [Compound 285, 2-(((S)-1,4-dioxan-2-yl)methyl)-4-(2,4-difluorobenzyl)-8,8-dimethyl-6-(2-((2R,5R)-5-methyl-2-(((R)-3-methylmorpholino)methyl)piperazin-1-yl)acetyl)-2,6,7,8-tetrahydro-1H-pyrrolo[2,3-e][1,2,4]triazolo[4,3-a]pyridin-1-one] are 4.6 nM and 26 nM.
The corresponding values for `C[C@@H]1CN(CC(=O)N2CC(C)(C)c3c2cc(Cc2ccc(F)cc2)c2nncn32)[C@@H](CN2CCOC[C@H]2C)CN1` [Example 9, 1-(4-(4-fluorobenzyl)-8,8-dimethyl-7,8-dihydro-6H-pyrrolo[2,3-e][1,2,4]triazolo[4,3-a]pyridin-6-yl)-2-((2R,5R)-5-methyl-2-(((R)-3-methylmorpholino)methyl)piperazin-1-yl)ethan-1-one] are 18 nM and 530 nM.
For the compound `Cc1nnc2c(Cc3ccc(F)cc3)cc3c(n12)C(C)(C)CN3C(=O)CN1C[C@@H](C)NC[C@@H]1CN1CCOC[C@H]1C` [Example 10, 1-(4-(4-fluorobenzyl)-1,8,8-trimethyl-7,8-dihydro-6H-pyrrolo[2,3-e][1,2,4]triazolo[4,3-a]pyridin-6-yl)-2-((2R,5R)-5-methyl-2-(((R)-3-methylmorpholino)methyl)piperazin-1-yl)ethan-1-one], the figures for the IC50 in the assay on EVSA-T cells and with MDA-MB-231 cells were 27 nM and 350 nM, respectively.
The like results for `CC(C)c1nnc2c(Cc3ccc(F)cc3)cc3c(n12)C(C)(C)CN3C(=O)CN1C[C@@H](C)NC[C@@H]1CN1CCOC[C@H]1C` [Example 11, 1-(4-(4-fluorobenzyl)-1-isopropyl-8,8-dimethyl-7,8-dihydro-6H-pyrrolo[2,3-e][1,2,4]triazolo[4,3-a]pyridin-6-yl)-2-((2R,5R)-5-methyl-2-(((R)-3-methylmorpholino)methyl)piperazin-1-yl)ethan-1-one] were, in that order, 10 nM and 170 nM.
The like results for `C[C@@H]1CN(CC(=O)N2CC(C)(C)c3c2cc(Cc2ccc(F)cc2)c2nnc(C4CC4)n32)[C@@H](CN2CCOC[C@H]2C)CN1` [Example 12, 1-(1-cyclopropyl-4-(4-fluorobenzyl)-8,8-dimethyl-7,8-dihydro-6H-pyrrolo[2,3-e][1,2,4]triazolo[4,3-a]pyridin-6-yl)-2-((2R,5R)-5-methyl-2-(((R)-3-methylmorpholino)methyl)piperazin-1-yl)ethan-1-one] were, in that order, 12 nM and 190 nM.
The like results for `C[C@@H]1CN(CC(=O)N2CC(C)(C)c3c2cc(Cc2ccc(F)cc2)c2nnc(C(F)(F)F)n32)[C@@H](CN2CCOC[C@H]2C)CN1` [Example 13, 1-(4-(4-fluorobenzyl)-8,8-dimethyl-1-(trifluoromethyl)-7,8-dihydro-6H-pyrrolo[2,3-e][1,2,4]triazolo[4,3-a]pyridin-6-yl)-2-((2R,5R)-5-methyl-2-(((R)-3-methylmorpholino)methyl)piperazin-1-yl)ethan-1-one] were, in that order, 9 nM and 170 nM.
Consider `C[C@@H]1CN(CC(=O)N2CC(C)(C)c3c2cc(Cc2ccc(F)cc2)c2ncnn32)[C@@H](CN2CCOC[C@H]2C)CN1` [Example 14, 1-(4-(4-fluorobenzyl)-8,8-dimethyl-7,8-dihydro-6H-pyrrolo[2,3-e][1,2,4]triazolo[1,5-a]pyridin-6-yl)-2-((2R,5R)-5-methyl-2-(((R)-3-methylmorpholino)methyl)piperazin-1-yl)ethan-1-one], for which the half-maximal inhibitory concentration (IC50) in the assay with EVSA-T cells was 6 nM; in the assay on MDA-MB-231 cells, 42 nM.
The like results for `C[C@@H]1CN(CC(=O)N2CC(C)(C)c3c2cc(Cc2ccc(F)cc2)c2nccn32)[C@@H](CN2CCOC[C@H]2C)CN1` [Example 17, 1-(4-(4-fluorobenzyl)-8,8-dimethyl-7,8-dihydro-6H-imidazo[1,2-a]pyrrolo[2,3-e]pyridin-6-yl)-2-((2R,5R)-5-methyl-2-(((R)-3-methylmorpholino)methyl)piperazin-1-yl)ethan-1-one] were, in that order, 4 nM and 120 nM.
The corresponding values for `CCOC(=O)c1cn2c3c(cc(Cc4ccc(F)cc4)c2n1)N(C(=O)CN1C[C@@H](C)NC[C@@H]1CN1CCOC[C@H]1C)CC3(C)C` [Example 18, ethyl 4-(4-fluorobenzyl)-8,8-dimethyl-6-(2-((2R,5R)-5-methyl-2-(((R)-3-methylmorpholino)methyl)piperazin-1-yl)acetyl)-7,8-dihydro-6H-imidazo[1,2-a]pyrrolo[2,3-e]pyridine-2-carboxylate] are 14 nM and 74 nM.
The corresponding values for `C[C@@H]1CN(CC(=O)N2CC(C)(C)c3c2cc(Cc2ccc(F)cc2)c2nc(CO)cn32)[C@@H](CN2CCOC[C@H]2C)CN1` [Example 19, 1-(4-(4-fluorobenzyl)-2-(hydroxymethyl)-8,8-dimethyl-7,8-dihydro-6H-imidazo[1,2-a]pyrrolo[2,3-e]pyridin-6-yl)-2-((2R,5R)-5-methyl-2-(((R)-3-methylmorpholino)methyl)piperazin-1-yl)ethan-1-one] are 21 nM and 180 nM.
As for `C[C@@H]1CN(CC(=O)N2CC(C)(C)c3c2cc(Cc2ccc(F)cc2)c2nc(C(N)=O)cn32)[C@@H](CN2CCOC[C@H]2C)CN1` [Example 20, 4-(4-fluorobenzyl)-8,8-dimethyl-6-(2-((2R,5R)-5-methyl-2-(((R)-3-methylmorpholino)methyl)piperazin-1-yl)acetyl)-7,8-dihydro-6H-imidazo[1,2-a]pyrrolo[2,3-e]pyridine-2-carboxamide], the concentration for half-maximal inhibition (IC50) in the assay on EVSA-T cells turned out to be 13 nM; in the assay with MDA-MB-231 cells, 110 nM.
The like results for `C[C@@H]1CN(CC(=O)N2CC(C)(C)c3c2cc(Cc2ccc(F)cc2)c2nc(C#N)cn32)[C@@H](CN2CCOC[C@H]2C)CN1` [Example 21, 4-(4-fluorobenzyl)-8,8-dimethyl-6-(2-((2R,5R)-5-methyl-2-(((R)-3-methylmorpholino)methyl)piperazin-1-yl)acetyl)-7,8-dihydro-6H-imidazo[1,2-a]pyrrolo[2,3-e]pyridine-2-carbonitrile] were, in that order, 5 nM and 23 nM.
The corresponding values for `C[C@@H]1CN(CC(=O)N2CC(C)(C)c3c2cc(Cc2ccc(F)cc2)n2ncnc32)[C@@H](CN2CCOC[C@H]2C)CN1` [Example 25, 1-(5-(4-fluorobenzyl)-9,9-dimethyl-8,9-dihydro-7H-pyrrolo[3,2-c][1,2,4]triazolo[1,5-a]pyridin-7-yl)-2-((2R,5R)-5-methyl-2-(((R)-3-methylmorpholino)methyl)piperazin-1-yl)ethan-1-one] are 11 nM and 84 nM.
The like results for `CC(=O)Nc1nc2c(Cc3ccc(F)cc3)cc3c(n2n1)C(C)(C)CN3C(=O)CN1C[C@@H](C)NC[C@@H]1CN1CCOC[C@H]1C` [Example 29, N-(4-(4-fluorobenzyl)-8,8-dimethyl-6-(2-((2R,5R)-5-methyl-2-(((R)-3-methylmorpholino)methyl)piperazin-1-yl)acetyl)-7,8-dihydro-6H-pyrrolo[2,3-e][1,2,4]triazolo[1,5-a]pyridin-2-yl)acetamide] were, in that order, 10 nM and 100 nM.
Regarding `C[C@@H]1CN(CC(=O)N2CC(C)(C)c3c2cc(Cc2ccc(F)cc2)c2nc(N)nn32)[C@@H](CN2CCOC[C@H]2C)CN1` [Example 30, 1-(2-amino-4-(4-fluorobenzyl)-8,8-dimethyl-7,8-dihydro-6H-pyrrolo[2,3-e][1,2,4]triazolo[1,5-a]pyridin-6-yl)-2-((2R,5R)-5-methyl-2-(((R)-3-methylmorpholino)methyl)piperazin-1-yl)ethan-1-one], the IC50 in the assay on EVSA-T cells turned out to be 3 nM; in the assay on MDA-MB-231 cells, 16 nM.
With `C[C@@H]1CN(CC(=O)N2CC(C)(C)c3c2cc(Cc2ccc(F)cc2)c2nc(C(N)=O)nn32)[C@@H](CN2CCOC[C@H]2C)CN1` [Example 31, 4-(4-fluorobenzyl)-8,8-dimethyl-6-(2-((2R,5R)-5-methyl-2-(((R)-3-methylmorpholino)methyl)piperazin-1-yl)acetyl)-7,8-dihydro-6H-pyrrolo[2,3-e][1,2,4]triazolo[1,5-a]pyridine-2-carboxamide], the results for the IC50 in the assay with EVSA-T cells and in the assay with MDA-MB-231 cells were 3 nM and 370 nM, respectively.
